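Tested at 5 concentrations; 48 h exposure; 96-well plates; endpoints linearly interpolated, else capped at highest concentration. Here, GI50 denotes the concentration required for 50% inhibition of growth.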 The source made the active and inactive calls. Rule as the data show it: active = GI50 up to about 1.1 µM and inactive = higher.
Key:
Assay in all cases: growth of human tumour cells (NCI), 48 h
[1] = system: HL-60
[2] = system: OVCAR-8
[3] = system: MOLT-4
[4] = system: ACHN
[5] = system: DLD-1
[6] = system: A498
[7] = system: TK-10
[8] = system: OVCAR-4
[9] = system: Malme-3M
[10] = system: HCT-116
[11] = system: RXF 393
[12] = system: HOP-92
[13] = system: SF-295
[14] = system: LOX IMVI
[15] = system: DU-145
[16] = system: MDA-MB-435
[17] = system: Hs-578T
[18] = system: PC-3
[19] = system: MDA-MB-231
[20] = system: MDA-N

Row | SMILES | GI50 [1] | GI50 [2] | GI50 [3] | GI50 [4] | GI50 [5] | GI50 [6] | GI50 [7] | GI50 [8] | GI50 [9] | GI50 [10] | GI50 [11] | GI50 [12] | GI50 [13] | GI50 [14] | GI50 [15] | GI50 [16] | GI50 [17] | GI50 [18] | GI50 [19] | GI50 [20]
1 | Cc1ccc(Nc2cccc3c2C(=O)c2cccc(Nc4ccc(C)cc4S(=O)(=O)O)c2C3=O)c(S(=O)(=O)O)c1 | > 100 µM (inactive) | > 100 µM (inactive) | > 100 µM (inactive) | > 100 µM (inactive) | > 100 µM (inactive) | > 100 µM (inactive) | > 100 µM (inactive) | > 100 µM (inactive) | > 100 µM (inactive) | > 100 µM (inactive) | > 100 µM (inactive) |  |  |  |  |  |  |  |  | 
2 | O=C(CC(=O)c1ccccc1)c1ccccc1.O=C(CC(=O)c1ccccc1)c1ccccc1.O=C(CC(=O)c1ccccc1)c1ccccc1.[SiH4] | 1.92 µM (inactive) | 3.47 µM (inactive) | 2.59 µM (inactive) | 3.63 µM (inactive) | 3.7 µM (inactive) | 10.6 µM (inactive) | 5.97 µM (inactive) | 4.63 µM (inactive) | 11.8 µM (inactive) | 5.02 µM (inactive) |  | 4.57 µM (inactive) | 4.65 µM (inactive) | 3.1 µM (inactive) |  |  |  |  |  | 
3 | COc1ccc(-c2oc3cc(O)c(OC)c(O)c3c(=O)c2OC2OC(CO)C(O)C(O)C2O)cc1 (stereo unspecified) | > 100 µM (inactive) | 91 µM (inactive) | > 100 µM (inactive) | 91.2 µM (inactive) | > 100 µM (inactive) |  | > 100 µM (inactive) | > 100 µM (inactive) |  | > 100 µM (inactive) |  | > 100 µM (inactive) | > 100 µM (inactive) | > 100 µM (inactive) |  |  |  |  |  | 
4 | O=c1[nH]c2ccsc2c(=O)n1COCc1ccccc1 | > 100 µM (inactive) | > 100 µM (inactive) | > 100 µM (inactive) | > 100 µM (inactive) |  | > 100 µM (inactive) | > 100 µM (inactive) | > 100 µM (inactive) | > 100 µM (inactive) | > 100 µM (inactive) | > 100 µM (inactive) | 79.8 µM (inactive) | > 100 µM (inactive) | > 100 µM (inactive) | > 100 µM (inactive) | > 100 µM (inactive) | > 100 µM (inactive) | > 100 µM (inactive) | > 100 µM (inactive) | > 100 µM (inactive)
5 | COc1cc(/C=C(\C#N)c2ccccc2)cc(OC)c1 | 24.3 µM (inactive) | > 10 µM (inactive) | 16.4 µM (inactive) | 60.5 µM (inactive) | 76.9 µM (inactive) |  | > 100 µM (inactive) | > 100 µM (inactive) | > 100 µM (inactive) | 49.5 µM (inactive) |  |  | 21.9 µM (inactive) | 22.1 µM (inactive) |  |  |  |  |  | 
6 | CC(=O)C1(C)CC(C#N)(C#N)C(C#N)=C1N (stereo unspecified) | > 100 µM (inactive) | > 100 µM (inactive) | > 100 µM (inactive) | > 100 µM (inactive) |  | > 100 µM (inactive) | > 100 µM (inactive) | > 100 µM (inactive) | > 100 µM (inactive) | > 100 µM (inactive) | > 100 µM (inactive) | 21 µM (inactive) | > 100 µM (inactive) | > 100 µM (inactive) | > 100 µM (inactive) | > 100 µM (inactive) | > 100 µM (inactive) | > 100 µM (inactive) | > 100 µM (inactive) | > 100 µM (inactive)
7 | CC1C(=O)O[B-]2(c3ccccc3)Oc3ccccc3C=[N+]12 (stereo unspecified) | 96.4 µM (inactive) | > 100 µM (inactive) | > 100 µM (inactive) | > 100 µM (inactive) |  | > 100 µM (inactive) | > 100 µM (inactive) | > 100 µM (inactive) | > 100 µM (inactive) | > 100 µM (inactive) | > 100 µM (inactive) | 31.3 µM (inactive) | > 100 µM (inactive) | > 100 µM (inactive) | > 100 µM (inactive) | > 100 µM (inactive) | > 100 µM (inactive) | > 100 µM (inactive) | > 100 µM (inactive) | > 100 µM (inactive)
8 | c1cc2c(c(NC3=NCCO3)c1)CCC2 | 60.1 µM (inactive) | > 100 µM (inactive) | > 100 µM (inactive) | > 100 µM (inactive) |  | > 100 µM (inactive) | > 100 µM (inactive) | > 100 µM (inactive) | > 100 µM (inactive) | > 100 µM (inactive) | > 100 µM (inactive) | 94.4 µM (inactive) | > 100 µM (inactive) | > 100 µM (inactive) | > 100 µM (inactive) | 85.7 µM (inactive) | 78.2 µM (inactive) | 67 µM (inactive) | > 100 µM (inactive) | 84.5 µM (inactive)
9 | O=C1OC(=O)C2CCCC3CCCC1C32 (stereo unspecified) | > 100 µM (inactive) | > 100 µM (inactive) | > 100 µM (inactive) | > 100 µM (inactive) |  | > 100 µM (inactive) | > 100 µM (inactive) | > 100 µM (inactive) | > 100 µM (inactive) | > 100 µM (inactive) | > 100 µM (inactive) | > 100 µM (inactive) | > 100 µM (inactive) | > 100 µM (inactive) | > 100 µM (inactive) | > 100 µM (inactive) | > 100 µM (inactive) | > 100 µM (inactive) | > 100 µM (inactive) | > 100 µM (inactive)
10 | C/C(=C\COc1ccc2ccc(=O)oc2c1)CCC(=O)C(C)(C)O | 15.2 µM (inactive) | 23.3 µM (inactive) | 22.9 µM (inactive) | 31.3 µM (inactive) |  | 24 µM (inactive) | 39.3 µM (inactive) | 51.9 µM (inactive) | 44.9 µM (inactive) | 15.6 µM (inactive) | 14.4 µM (inactive) | 26.4 µM (inactive) | 38.4 µM (inactive) | 13.8 µM (inactive) | 32.1 µM (inactive) | 21.4 µM (inactive) | 26.4 µM (inactive) | 53.5 µM (inactive) | 44 µM (inactive) | 25.6 µM (inactive)
11 | C=CCCCC1SC2=C(CC)CCCN2C1=O (stereo unspecified) | 34.4 µM (inactive) | > 100 µM (inactive) | 56.8 µM (inactive) | 89.1 µM (inactive) |  | 90.4 µM (inactive) | 84.3 µM (inactive) | 65.6 µM (inactive) | 48.5 µM (inactive) | 53.8 µM (inactive) | 40.5 µM (inactive) | 36.9 µM (inactive) | 64 µM (inactive) | 89.7 µM (inactive) | > 100 µM (inactive) | 84.3 µM (inactive) | 47.9 µM (inactive) | 45.2 µM (inactive) | 92 µM (inactive) | 70.1 µM (inactive)
12 | NCCCCC(NC(=O)C(N)Cc1ccc(O)cn1)C(=O)O (stereo unspecified) | > 100 µM (inactive) | > 100 µM (inactive) | > 100 µM (inactive) | > 100 µM (inactive) |  | > 100 µM (inactive) | > 100 µM (inactive) | > 100 µM (inactive) | > 100 µM (inactive) | > 100 µM (inactive) | > 100 µM (inactive) | > 100 µM (inactive) | > 100 µM (inactive) | > 100 µM (inactive) | > 100 µM (inactive) | > 100 µM (inactive) | > 100 µM (inactive) | > 100 µM (inactive) | > 100 µM (inactive) | > 100 µM (inactive)
13 | C=C1c2nc3ccccc3n2C=C(c2ccc(OC)cc2)N1c1ccc(OCCN2CCCCC2)cc1 | 3.58 µM (inactive) | 7.76 µM (inactive) | 2.58 µM (inactive) | 8.24 µM (inactive) |  | 35.7 µM (inactive) | 14.8 µM (inactive) | 11.6 µM (inactive) | > 48.4 µM (inactive) | 5.83 µM (inactive) | 27.6 µM (inactive) | 28.1 µM (inactive) | 8.85 µM (inactive) | 7.41 µM (inactive) | 13.1 µM (inactive) | 8.69 µM (inactive) | 11.2 µM (inactive) | 15.2 µM (inactive) | 19.8 µM (inactive) | 19.7 µM (inactive)
14 | CCc1nc2c([nH]1)C(=O)c1ccccc1C2=O | 25.6 µM (inactive) | 57.9 µM (inactive) | 46.3 µM (inactive) | 59.8 µM (inactive) | 39.1 µM (inactive) | > 100 µM (inactive) | > 100 µM (inactive) | 58.7 µM (inactive) | 24.8 µM (inactive) | 27.2 µM (inactive) | > 100 µM (inactive) |  | 45.7 µM (inactive) |  |  |  |  |  |  | 
15 | O=C(NC(N1CCN(c2cc3c(cc2F)c(=O)c(C(=O)O)cn3C2CC2)CC1)(C(F)(F)F)C(F)(F)F)c1ccccc1 | 25.4 µM (inactive) | 46 µM (inactive) | 26.1 µM (inactive) | 35.8 µM (inactive) |  | 30.4 µM (inactive) | 27.4 µM (inactive) | 35.2 µM (inactive) | 36.6 µM (inactive) | 34.1 µM (inactive) | 46.1 µM (inactive) | 33.8 µM (inactive) | 40.6 µM (inactive) | 33.9 µM (inactive) | 62.1 µM (inactive) | 34.1 µM (inactive) | 40.9 µM (inactive) | 45.1 µM (inactive) | 22.2 µM (inactive) | 39.6 µM (inactive)
16 | CC1=C[C@@H]2Cc3nc4cc(Cl)ccc4c(N)c3[C@H](C1)C2 | 15.3 µM (inactive) | 15.3 µM (inactive) | 2.07 µM (inactive) | 10.6 µM (inactive) |  | 11.2 µM (inactive) | 5.78 µM (inactive) | 3.99 µM (inactive) | 12 µM (inactive) | 2.96 µM (inactive) | 5.42 µM (inactive) | 0.685 µM (active) | 6.17 µM (inactive) | 5.38 µM (inactive) | 12.9 µM (inactive) | 10.9 µM (inactive) | 2.42 µM (inactive) | 12.5 µM (inactive) | 11.6 µM (inactive) | 15.5 µM (inactive)
17 | O=C(Nc1ccccc1Cl)c1ccc([N+](=O)[O-])cc1 |  | > 100 µM (inactive) | > 100 µM (inactive) |  | > 100 µM (inactive) | > 100 µM (inactive) | > 100 µM (inactive) |  | > 100 µM (inactive) |  | 33.3 µM (inactive) |  | 46.7 µM (inactive) | > 100 µM (inactive) |  |  |  |  |  | 
